As a reminder, the melting point is the temperature, or range, at which the solid turns liquid.

We go through 89 compounds from a melting point compilation (Tetko et al.).

Molecules are shown by their SMILES.

Compound `Sc1n[nH]c(-c2ccccn2)n1` yielded a melting point of 279 to 281 °C.

Regarding `O=C(O)c1cc([N+](=O)[O-])cnc1Br`, the melting point was in the range of 135 to 137 °C.

In the case of `Cc1[nH]oc(=N)c1-c1cccc(Cl)c1`, the melting point lay in the range of 148 to 150 °C.

Compound `Cc1cc(=O)c(C(=O)O)nn1-c1cccc(Cl)c1` came in with a melting point of 223 to 225 °C.

In turn, `CN1C(=O)CCC(CO)C1c1ccc(C(F)(F)F)cc1` (centres undefined) registered a melting point of 95 to 97 °C.

Compound `O=C(O)Cc1cccc(OC(F)F)c1` had a melting point of 52 to 54 °C.

In the case of `Nc1nc(CO)n[nH]1`, the melting point fell in the range of 193 to 195 °C.

For `N#CCCOc1ccc(Br)cc1`, the melting point fell in the range of 76 to 78 °C.

The compound `O=S(=O)(Cl)c1ccc(N2CCCS2(=O)=O)cc1` showed a melting point of 184 to 186 °C.

As to `CCNc1ncc(C(=O)OC)s1`, the melting point lay within 136 to 138 °C.

`CC(C)(C)C(=O)C=Cc1ccc(Br)s1` gave a melting point of 44 to 46 °C.

Turning to `CSC=CC(=O)O`, the melting point was 118 to 120 °C.

As to `NC(=O)c1ccc(C(F)(F)F)nc1`, the melting point was in the range of 185 to 187 °C.

Take `FC(F)(F)c1cc(Cl)nc(-c2cccnc2)n1`: the melting point is 114 to 116 °C.

As to `CCOc1ccccc1Oc1ccccc1C(=O)O`, the melting point was in the range of 96 to 98 °C.

`CC(C)C(=O)c1ccc2[nH]c(=O)oc2c1` displayed a melting point of 188 to 190 °C.

Regarding `Cc1c(C(=O)O)cnn1C1CCCCC1`, the melting point lay in the range of 143 to 145 °C.

Compound `COc1cc(C(=O)NN)ccc1OCCC(C)C` returned a melting point of 88 to 90 °C.

Turning to `Cc1nn2c(=O)cc(CCl)nc2s1`, the melting point lay within 210 to 212 °C.

In turn, `Cc1ccc(F)c(C(=O)O)c1N` returned a melting point of 139 to 141 °C.

`O=C1Cc2cc(S(=O)(=O)Cl)c(Cl)cc2N1` returned a melting point of 185 to 187 °C.

As to `CCNC(=O)c1cccc(O)c1`, the melting point lay in the range of 160 to 162 °C.

As to `Nc1cccc(CS(N)(=O)=O)c1`, the melting point is 144 to 146 °C.

`O=c1[nH]c(S)nc2ccc(F)cc12` showed a melting point of 345 to 347 °C.

Consider `Nc1ccn(-c2nccs2)n1`, for which the melting point lay within 99 to 101 °C.

As for `Cn1c(=O)c(Br)c(N)n(Cc2ccccc2)c1=O`, the melting point was 210 to 212 °C.

Turning to `O=C(O)c1ccc(N2CCOCC2)c(F)c1`, the melting point was in the range of 220 to 222 °C.

The compound `CC(Cl)C(=O)Nc1ccc(Cl)c(C(F)(F)F)c1` (centres undefined) had a melting point of 130 to 135 °C.

For `CCN(CC(=O)O)S(=O)(=O)c1cccnc1Cl`, the melting point is 156 to 158 °C.

In turn, `Nc1nc(-c2cccc(Br)c2)cs1` returned a melting point of 121 to 125 °C.

The compound `O=C(O)C(Oc1ccc(F)cc1F)c1ccccc1` (centres undefined) showed a melting point of 96 to 98 °C.

In turn, `O=[N+]([O-])c1cnc(Br)c(Br)c1` had a melting point of 76 to 78 °C.

`COCCc1nnc(S)n1N`: the melting point fell in the range of 118 to 120 °C.

The compound `CCC(C)(C)c1ccc(C(=O)O)cc1` came in with a melting point of 103 to 105 °C.

In the case of `NS(=O)(=O)c1cnn(CCC(=O)O)c1`, the melting point was 126 to 128 °C.

As to `CC(C)(C)OC(=O)Nc1ccc(CC(N)=S)cc1`, the melting point lay within 160 to 162 °C.

For the compound `O=S(=O)(Cl)c1ccc(F)c2ncccc12`, the melting point was in the range of 104 to 106 °C.

Take `O=C(O)c1cc(S(=O)(=O)N2CCCC2)ccc1Br`: the melting point lay in the range of 216 to 218 °C.

`Nc1cccc(NC(=O)C2CC2)c1`: the melting point was 133 to 135 °C.

For the compound `Cc1cc(C)cc(Oc2ccc(CN)cc2C)c1`, the melting point is 56 to 58 °C.

Consider `CC(C)(C)OC(=O)N1CCCC(COS(C)(=O)=O)C1` (centres undefined), for which the melting point lay within 76 to 78 °C.

In turn, `O=Cc1ccc(-n2ccnc2)nc1` displayed a melting point of 139 to 141 °C.

The compound `CNC(=O)c1cc(OC)c(OC)cc1N` showed a melting point of 129 to 131 °C.

On to `Cc1nc2nc(S)nn2c(C)c1CC(=O)O`, for which the melting point is 226 to 228 °C.

For the compound `Ic1ccc(OCc2ccccn2)cc1`, the melting point is 74 to 76 °C.

`CSC(=S)NN=C(C)c1ccccc1` gave a melting point of 149 to 151 °C.

Consider `O=C1NC(=O)c2cc(S(=O)(=O)Cl)ccc21`, for which the melting point was 163 to 165 °C.

`Cc1cc(Br)c2c(c1)C(=O)CCO2` displayed a melting point of 84 to 86 °C.

As to `COc1ccccc1CNC(=O)CCl`, the melting point fell in the range of 94 to 96 °C.

`COc1ccc(NS(=O)(=O)c2cccs2)cc1` registered a melting point of 120 to 122 °C.

For the compound `Cc1cc(O)cc(=O)n1CC(=O)O`, the melting point fell in the range of 248 to 250 °C.

Compound `CCc1cc2c(=O)n(N)cnc2s1` came in with a melting point of 137 to 139 °C.

`CC(C)CN1CC(C(=O)O)CC1=O` (centres undefined): the melting point is 83 to 85 °C.

`COc1ccc(OC)c(CNCCO)c1` yielded a melting point of 91 to 93 °C.

`Cc1ccccc1-c1cc(N)n(Cc2ccccc2)n1` yielded a melting point of 139 to 141 °C.

Take `COc1ccc(CCNC(C)=O)cc1S(=O)(=O)Cl`: the melting point lay in the range of 76 to 78 °C.

The compound `O=C(O)CSc1ncn[nH]1` displayed a melting point of 154 to 156 °C.

`COCC(=O)NC(C)C(=O)O` (centres undefined) yielded a melting point of 108 to 110 °C.

Compound `NC(CC(=O)O)C1CCOCC1` (centres undefined) had a melting point of 228 to 230 °C.

Consider `O=C(CCl)Nc1ccc(Cl)cn1`, for which the melting point lay in the range of 142 to 144 °C.

As for `O=C(O)C(=O)NCCCc1ccccc1`, the melting point was in the range of 120 to 122 °C.

`Nc1cc(-c2cc3ccccc3o2)n[nH]1` gave a melting point of 124 to 126 °C.

On to `Cn1ccnc1C(O)C(F)(F)F` (centres undefined), for which the melting point lay within 135 to 137 °C.

In turn, `CC(C)(C)OC(=O)c1cccc(C=O)c1` showed a melting point of 31 to 33 °C.

Regarding `CC1CN(S(=O)(=O)CCN)CC(C)O1` (centres undefined), the melting point lay in the range of 73 to 75 °C.

Compound `CCc1nonc1N` came in with a melting point of 69 to 71 °C.

In the case of `Fc1ccc(F)c2c(Cl)ccnc12`, the melting point lay within 154 to 156 °C.

Compound `Clc1ccnc2ccc(Br)cc12` yielded a melting point of 111 to 113 °C.

`CC(C)CN1C(=O)CN=C1S` returned a melting point of less than 17 °C.

For the compound `Cc1n[nH]c(SCC(=O)O)n1`, the melting point lay within 228 to 230 °C.

`CC(C)(Oc1ccc(F)cc1)C(=O)O` returned a melting point of 68 to 70 °C.

In turn, `CCOc1ccc(OCC2CO2)cc1` (centres undefined) gave a melting point of 53 to 55 °C.

Turning to `Nc1ccc(Br)cc1-c1nc(C2CC2)no1`, the melting point was in the range of 123 to 125 °C.

Regarding `Cc1ccc(C(=O)C(Cl)c2ccc(C)cc2)cc1` (centres undefined), the melting point fell in the range of 67 to 69 °C.

Take `Cc1cc(F)cc2c(=O)c(C(=O)O)c[nH]c12`: the melting point lay in the range of 289 to 291 °C.

Take `Cc1ccc(NC(=O)CC#N)cc1`: the melting point was in the range of 188 to 190 °C.

`Nc1cc(Cl)ccc1N1CCC(CO)CC1` displayed a melting point of 144 to 146 °C.

`CCCN1CCc2c(sc(N)c2C(=O)OCC)C1`: the melting point lay in the range of 69 to 73 °C.

The compound `O=C(O)CN1C(=O)c2ccc([N+](=O)[O-])cc2C1=O` had a melting point of 197 to 199 °C.

Compound `NC(=O)c1coc(Br)c1` gave a melting point of 165 to 167 °C.

`CCOC=C1C(=O)N(c2cccc(Cl)c2)C(=O)c2ccccc21`: the melting point was in the range of 205 to 209 °C.

Compound `CC(=O)c1cn(-c2ccccc2)nn1` came in with a melting point of 102 to 104 °C.

Regarding `O=C1NCCC=C1Cl`, the melting point was 76 to 78 °C.

Consider `Cc1noc(C)c1S(N)(=O)=O`, for which the melting point lay in the range of 151 to 152 °C.

Compound `CCc1c(C(C)O)oc2ccccc12` (centres undefined) yielded a melting point of 66 to 68 °C.

As for `O=C(Nc1nnc(C2CCCCC2)s1)OCC(F)(F)F`, the melting point was in the range of 182 to 184 °C.

The compound `OCCNc1ccccn1` displayed a melting point of 64 to 66 °C.

As to `Nc1cc2c(cc1Cl)NC(=O)CO2`, the melting point is 227 to 229 °C.

For the compound `CS(=O)(=O)NC1CCCNC1` (centres undefined), the melting point is 123 to 125 °C.
